Source: paper PMC8201324, “Pyrazoles and Pyrazolines as Anti-Inflammatory Agents” (Molecules, 2021)
Marks after values point to notes of the source that are not given here.

Legend:
[1] = test system: acetic acid-induced writhing; test: Anti-nociception writhing test (acetic acid); type: in vivo, Fisher 344 rats; conditions: 0.0057 mmol/kg body weight i.p., 0.6% acetic acid after 30 min
From the text: The acetic acid-induced writhing test is a quick, simple and reproducible method, despite the fact that it lacks specialization. […] The animals (Fisher 344 rats), were housed under standard conditions, and received a diet of commercial food pellets and water ad libitum during the maintenance, but were entirely fasted during the experiment period. Both sexes were used, while pregnant females were excluded. Each group was composed of 6–15 animals. Our studies were in accordance with recognized guidelines on animal experimentation (guidelines for the care and use of laboratory animals published by the Greek Government 160/1991, based on EU regulations 86/609). Rats were kept in the Centre of the School of Veterinary Medicine (EL54 BIO42), Aristotle University of Thessaloniki, which is registered by the official state veterinary authorities (presidential degree 56/2013, in harmony with the European Directive 2010/63/EEC). The experimental protocols were approved by the Animal Ethics Committee of the Prefecture of Central Macedonia. For the study of the analgesic activity of the tested compounds, pain is provoked with acetic acid. Animals were divided in three five-membered groups, according to our reported method. After treatment with the tested compounds (0.0057 mmol/kg body weight; intraperitoneally) in the first group, the second group was used as a positive control (aspirin; 0.0057 mmol/kg body weight i.p.) and the third group served as the control in which saline was administered (negative control). After 30 min, 0.6% acetic acid (1 mL/kg body weight) was injected i.p. The number of writhes was recorded for each animal every 5 min during a subsequent 30 min period (Table 6).

[2] = test system: carrageenin-induced rat paw edema; test: Inhibition of the carrageenin-induced rat paw edema; type: in vivo, Fisher 344 rats; conditions: 0.0057 mmol/Kg body weight, intraperitoneally, 3.5 h after carrageenin
From the text: The carrageenin-induced rat paw edema assay was used, as a model of acute inflammation. Inflammation induced by carrageenan is acute, non-immune, well-researched, and highly reproducible, and is described as a biphasic event. Cardinal signs of inflammation—edema, hyperalgesia, and erythema, are developed immediately following subcutaneous injection, resulting from the action of pro-inflammatory agents: bradykinin, histamine, tachykinins, complement reactive oxygen and nitrogen species. It is known that NSAIDs act during the second phase of prostaglandin release, presenting weak activity in the first phase of histamine and serotonin release.
(§1) The animals (Fisher 344 rats), were housed under standard conditions, and received a diet of commercial food pellets and water ad libitum during the maintenance, but were entirely fasted during the experiment period. Both sexes were used, while pregnant females were excluded. Each group was composed of 6–15 animals. Our studies were in accordance with recognized guidelines on animal experimentation (guidelines for the care and use of laboratory animals published by the Greek Government 160/1991, based on EU regulations 86/609). Rats were kept in the Centre of the School of Veterinary Medicine (EL54 BIO42), Aristotle University of Thessaloniki, which is registered by the official state veterinary authorities (presidential degree 56/2013, in harmony with the European Directive 2010/63/EEC). The experimental protocols were approved by the Animal Ethics Committee of the Prefecture of Central Macedonia.
Carrageenin in water as an intradermal injection of 0.1 mL 2% was used for the induction of the edema in the right hind paw of the rats, according to the previously reported method. Animals were divided in five-membered groups and the tested compounds were suspended in water (0.0057 mmol/kg body weight), with a few drops of Tween 80, ground in a mortar before administered intraperitoneally simultaneously. The rats were euthanized 3.5 h after carrageenin injection. Comparison of the change in paw weight with that in control animals (treated with water) was expressed as a percent inhibition of the oedema CPE% values using indomethacin (IMA) as a reference compound. Values CPE% are the mean from two different experiments with a standard error of the mean less than 10% (Table 5). Student’s T test was applied.

[3] = test system: adjuvant-induced disease (AID); test: Adjuvant-induced disease (AID); type: in vivo, Fisher 344 rats; conditions: AID rats
Description: Adjuvant-induced disease (AID) is a good experimental model for rheumatoid arthritis, and is often used in testing agents for anti-inflammatory activity. The compound was administered intraperitoneally on the 1st day, i.e., the day of the administration of Freund’s adjuvant (FA), and once every other day for the following 24 days. Adjuvant arthritis was developed about 14 days post-FA administration. […] The effect of the tested compound on inflammation is shown in Table 7 and the time course of adjuvant arthritis development expressed as arthritic score is shown in Figure 2. In the same experimental model, Indomethacin (IMA) was used as a reference compound.
as §1
Rats were divided into four groups (five-membered groups of animals were used): groups one, two and three were injected intradermally with 0.1 mL Freund’s adjuvant (FA) into the base of the tails of the animals; group three was the FA control rats; group four was injected with saline, used as an absolute control. Compound 2d (group 1) and indomethacin (group 2) were injected i.p. once every other day for the following 24 days in a dose of 0.00057 mmol/mL/kg body weight (Table 7). Adjuvant arthritis was developed circa 14 days post-FA administration. Arthritic score was measured every 2 days from the commencement (14th day) day. Arthritic score was assessed on the 24th day. For quantification of arthritis (arthritic score); a single point was assigned for each wrist or ankle area and an additional point was given for each involved phalangeal joint, up to a maximum of five points per extremity.
On the 24th day and at least 12 h after the last injection, animals were administered zoxazolamine i.p. […], as an aqueous suspension with a few drops of Tween 80, and the duration of the paralysis were assessed (Table 7) (Figure 2). The experiment was conducted in duplicate.

[4] = Reducing activity of the stable radical DPPH; type: biochemical
Description: The novel derivatives were studied for their interaction with the stable 2,2-diphenyl-1-picrylhydrazyl free radical (DPPH) at concentrations 50 µM, 100 µM, 200 µM and after 20 and 60 min (Table 3). This assay is based on the reduction of the DPPH by transferring an electron from the antioxidant. […] However, it seems that the interaction is dependent on the concentration and on the reaction time. From this point of view, it can be concluded that the acetyl pyrazolyl derivatives 2c and 2f seem to present the highest scavenging activities. An increase in concentration favors the activity. […] As for compounds 2a, 2b, 2c and 2f, activity seems to be time dependent at 200 µM. […] The presence of a chlorine group in 2e pyrazoline leads to an activity increase (compared to 2d) in concentration 200 µM. The acetyl derivative 2f presents better activity than 2b at 200 µM.
(§2) A stock solution (1% DMSO in the appropriate buffer with the tested compound diluted under sonication) was prepared for the in vitro assays from which several dilutions were made with the appropriate buffer. The in vitro experiments were performed at least in triplicate, and the standard deviation of absorbance was less than 10% of the mean.
A stock solution (10 mM) of the novel derivatives in DMSO was prepared and an equal volume of it was added to a solution of DPPH in absolute ethanol to reach final concentrations 50, 100 µM and 200 µM. The absorbance was recorded at 517 nm, after 20 and 60 min at room temperature (Table 3).

[5] = Inhibition of linoleic acid lipid peroxidation (AAPH); type: biochemical
Description: For the lipid peroxidation study, 2,2′-azobis(2-amidinopropane) hydrochloride (AAPH) was used for the generation of peroxyl radicals. The generation of the conjugated diene hydroperoxide derived from the oxidation of sodium linoleate in an aqueous solution was recorded at 234 nm. The compounds presented high anti-lipid peroxidation activity (78–100%) (Table 4). Pyrazolines 2a and 2b present lower anti-lipid peroxidation activity (89% and 78% respectively).
as §2
AAPH was used as free radical initiator of alkylperoxyl radicals. The ability of the compounds to prevent the oxidation of linoleic acid sodium salt from alkylperoxyl radicals was recorded at 234 nm. Trolox was used as reference (93%) (Table 4).

[6] = ABTS+ decolorization assay for antioxidant activity; type: biochemical
From the text: Pyrazolines 2d and 2e which are the most lipophilic compounds, showing antioxidant activity using the ABTS radical cation (ABTS^•+) generated through potassium persulfate by oxidation with no participation of an intermediary radical. This reduction is completed by adding electron-donating antioxidants. It seems that lipophilicity influences the activity, since both present high lipophilicity values.
as §2
The ABTS radical cation (ABTS^+•) was generated by mixing ABTS stock solution in water (7 mM) with potassium persulfate (2.45 mM) and left in the dark at room temperature for 12–16 h before use. The results are recorded immediately after the mixing solutions at 734 nm. The results were compared to the appropriate standard inhibitor Trolox (Table 4).

[7] = 0.00057 mmol/mL/kg i.p. every other day for 24 days

Compound: CC(=O)Oc1ccccc1C(=O)O [Aspirin, acetylsalicylic acid, reference compound]
- Writhing Inhibition (%) [1]: 77 ** %

Compound: COc1ccc2c(c1)c(CC(=O)O)c(C)n2C(=O)c1ccc(Cl)cc1 [Indomethacin, reference compound]
- CPE % (reduction in the rat paw edema induced by carrageenin) [2]: 47 ** %
- Percent change in body weight (g ± SD) [3, 7]: 8.3 ± 0.2 g
- Percent change in liver weight (g ± SD) [3, 7]: 6.3 ± 0.4 g
- Zoxazolamine paralysis (minutes ± SD) ([3]; 24th day, zoxazolamine i.p.): 217 ± 17 min

Compound: CC(Cc1ccc(O)c(O)c1)C(C)Cc1ccc(O)c(O)c1 (stereo not drawn) [NDGA, Nordihydroguaretic acid, reference compound]
- RA% 50 µM 20 min ([4]; 50 µM, 20 min): 81%
- RA% 50 µM 60 min ([4]; 50 µM, 60 min): 83%
- RA% 100 µM 20 min ([4]; 100 µM, 20 min): 87%
- RA% 200 µM 20 min ([4]; 200 µM, 20 min): 94%
- RA% 200 µM 60 min ([4]; 200 µM, 60 min): 96%

Compound: Cc1c(C)c2c(c(C)c1O)CCC(C)(C(=O)O)O2 (stereo not drawn) [Trolox, 6-Hydroxy-2,5,7,8-tetramethyl-chroman-2-carboxylic acid, reference compound]
- AAPH% 100 µM (anti-lipid peroxidation) [5]: 93%
- ABTS^+ % 100 µM (decolorization activity) [6]: 91%
